Laboratory results as given in patent US9340590B2 (priority 2011, dated 2016).
Like-named read-outs stand apart in the source and are kept apart here. Positions of bridges follow the written chain, without caps; N, C: chain ends. Non-standard residues stand in square brackets, D forms with d. Residues, ends and D or L forms follow the SMILES beside them. Arg(Me2s) = CN=C(NC)NCCC[C@H](N)C(=O)O

What was measured:
Assay in all cases: cell-based
hNav1.5 = hNav1.5 (Homo sapiens, UniProt Q14524); conditions: IonWorks Quattro, read-out: IWQ Use Nav1.5
hNav1.3 = hNav1.3 (Homo sapiens, UniProt Q9NY46); conditions: IonWorks Quattro, read-out: IWQ Use Nav1.3
Sequence of hNav1.3 (Q9NY46 whole entry, looked up): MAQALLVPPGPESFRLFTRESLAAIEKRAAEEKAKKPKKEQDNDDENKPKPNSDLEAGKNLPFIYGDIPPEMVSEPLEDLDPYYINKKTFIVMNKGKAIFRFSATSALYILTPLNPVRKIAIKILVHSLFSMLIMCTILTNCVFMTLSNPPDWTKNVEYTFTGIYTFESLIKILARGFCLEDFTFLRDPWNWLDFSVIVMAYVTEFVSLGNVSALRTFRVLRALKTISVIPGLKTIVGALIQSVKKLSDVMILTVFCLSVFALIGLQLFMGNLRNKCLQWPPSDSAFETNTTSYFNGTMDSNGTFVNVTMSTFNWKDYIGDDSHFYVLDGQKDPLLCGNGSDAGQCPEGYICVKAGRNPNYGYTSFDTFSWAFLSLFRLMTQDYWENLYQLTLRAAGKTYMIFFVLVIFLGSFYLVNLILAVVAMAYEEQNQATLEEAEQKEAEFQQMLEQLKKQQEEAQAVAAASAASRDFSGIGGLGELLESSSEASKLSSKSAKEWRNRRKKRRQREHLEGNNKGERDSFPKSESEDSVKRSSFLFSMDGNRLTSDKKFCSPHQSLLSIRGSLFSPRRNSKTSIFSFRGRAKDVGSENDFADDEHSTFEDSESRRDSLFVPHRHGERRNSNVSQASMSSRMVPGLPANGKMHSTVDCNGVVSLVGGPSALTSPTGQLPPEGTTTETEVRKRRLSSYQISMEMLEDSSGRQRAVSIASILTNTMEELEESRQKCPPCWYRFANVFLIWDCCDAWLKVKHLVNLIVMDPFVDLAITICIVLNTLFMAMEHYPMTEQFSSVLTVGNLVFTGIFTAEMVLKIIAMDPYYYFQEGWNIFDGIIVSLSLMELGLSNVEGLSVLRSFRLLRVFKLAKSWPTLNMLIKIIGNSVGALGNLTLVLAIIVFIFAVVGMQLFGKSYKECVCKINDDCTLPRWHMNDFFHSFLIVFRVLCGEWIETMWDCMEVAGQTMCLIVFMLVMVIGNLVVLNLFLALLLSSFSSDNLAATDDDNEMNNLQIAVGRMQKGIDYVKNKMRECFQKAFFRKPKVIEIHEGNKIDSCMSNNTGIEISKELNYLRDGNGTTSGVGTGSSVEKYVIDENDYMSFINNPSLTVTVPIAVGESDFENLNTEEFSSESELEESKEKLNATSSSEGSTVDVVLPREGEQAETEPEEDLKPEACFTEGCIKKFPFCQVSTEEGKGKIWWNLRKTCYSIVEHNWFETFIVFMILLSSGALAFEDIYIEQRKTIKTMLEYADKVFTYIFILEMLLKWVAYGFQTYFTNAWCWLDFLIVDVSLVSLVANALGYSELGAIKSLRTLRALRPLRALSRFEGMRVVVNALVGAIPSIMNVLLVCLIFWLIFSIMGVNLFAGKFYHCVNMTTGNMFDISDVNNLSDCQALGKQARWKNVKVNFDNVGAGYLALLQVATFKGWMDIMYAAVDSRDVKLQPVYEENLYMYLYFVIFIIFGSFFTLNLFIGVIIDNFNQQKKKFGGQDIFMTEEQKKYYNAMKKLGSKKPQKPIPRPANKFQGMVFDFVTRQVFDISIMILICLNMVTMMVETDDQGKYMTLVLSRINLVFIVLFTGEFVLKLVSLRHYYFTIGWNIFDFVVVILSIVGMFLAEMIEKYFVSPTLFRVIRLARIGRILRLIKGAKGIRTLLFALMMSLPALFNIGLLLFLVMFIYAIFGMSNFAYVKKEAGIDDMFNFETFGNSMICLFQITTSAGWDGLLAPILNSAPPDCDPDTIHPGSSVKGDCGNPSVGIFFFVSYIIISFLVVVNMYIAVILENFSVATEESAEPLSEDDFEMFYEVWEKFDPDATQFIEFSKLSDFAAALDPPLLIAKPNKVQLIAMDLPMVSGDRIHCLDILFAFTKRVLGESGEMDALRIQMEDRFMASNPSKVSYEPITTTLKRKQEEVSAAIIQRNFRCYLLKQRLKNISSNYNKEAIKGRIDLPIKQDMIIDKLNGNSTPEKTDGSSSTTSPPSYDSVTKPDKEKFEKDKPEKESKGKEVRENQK

hNav1.7 = hNav1.7 (Homo sapiens, UniProt Q15858); type: cell-based; conditions: IonWorks Quattro, read-out: IWQ Use Nav1.7
Sequence of hNav1.7 (Q15858 whole entry, looked up): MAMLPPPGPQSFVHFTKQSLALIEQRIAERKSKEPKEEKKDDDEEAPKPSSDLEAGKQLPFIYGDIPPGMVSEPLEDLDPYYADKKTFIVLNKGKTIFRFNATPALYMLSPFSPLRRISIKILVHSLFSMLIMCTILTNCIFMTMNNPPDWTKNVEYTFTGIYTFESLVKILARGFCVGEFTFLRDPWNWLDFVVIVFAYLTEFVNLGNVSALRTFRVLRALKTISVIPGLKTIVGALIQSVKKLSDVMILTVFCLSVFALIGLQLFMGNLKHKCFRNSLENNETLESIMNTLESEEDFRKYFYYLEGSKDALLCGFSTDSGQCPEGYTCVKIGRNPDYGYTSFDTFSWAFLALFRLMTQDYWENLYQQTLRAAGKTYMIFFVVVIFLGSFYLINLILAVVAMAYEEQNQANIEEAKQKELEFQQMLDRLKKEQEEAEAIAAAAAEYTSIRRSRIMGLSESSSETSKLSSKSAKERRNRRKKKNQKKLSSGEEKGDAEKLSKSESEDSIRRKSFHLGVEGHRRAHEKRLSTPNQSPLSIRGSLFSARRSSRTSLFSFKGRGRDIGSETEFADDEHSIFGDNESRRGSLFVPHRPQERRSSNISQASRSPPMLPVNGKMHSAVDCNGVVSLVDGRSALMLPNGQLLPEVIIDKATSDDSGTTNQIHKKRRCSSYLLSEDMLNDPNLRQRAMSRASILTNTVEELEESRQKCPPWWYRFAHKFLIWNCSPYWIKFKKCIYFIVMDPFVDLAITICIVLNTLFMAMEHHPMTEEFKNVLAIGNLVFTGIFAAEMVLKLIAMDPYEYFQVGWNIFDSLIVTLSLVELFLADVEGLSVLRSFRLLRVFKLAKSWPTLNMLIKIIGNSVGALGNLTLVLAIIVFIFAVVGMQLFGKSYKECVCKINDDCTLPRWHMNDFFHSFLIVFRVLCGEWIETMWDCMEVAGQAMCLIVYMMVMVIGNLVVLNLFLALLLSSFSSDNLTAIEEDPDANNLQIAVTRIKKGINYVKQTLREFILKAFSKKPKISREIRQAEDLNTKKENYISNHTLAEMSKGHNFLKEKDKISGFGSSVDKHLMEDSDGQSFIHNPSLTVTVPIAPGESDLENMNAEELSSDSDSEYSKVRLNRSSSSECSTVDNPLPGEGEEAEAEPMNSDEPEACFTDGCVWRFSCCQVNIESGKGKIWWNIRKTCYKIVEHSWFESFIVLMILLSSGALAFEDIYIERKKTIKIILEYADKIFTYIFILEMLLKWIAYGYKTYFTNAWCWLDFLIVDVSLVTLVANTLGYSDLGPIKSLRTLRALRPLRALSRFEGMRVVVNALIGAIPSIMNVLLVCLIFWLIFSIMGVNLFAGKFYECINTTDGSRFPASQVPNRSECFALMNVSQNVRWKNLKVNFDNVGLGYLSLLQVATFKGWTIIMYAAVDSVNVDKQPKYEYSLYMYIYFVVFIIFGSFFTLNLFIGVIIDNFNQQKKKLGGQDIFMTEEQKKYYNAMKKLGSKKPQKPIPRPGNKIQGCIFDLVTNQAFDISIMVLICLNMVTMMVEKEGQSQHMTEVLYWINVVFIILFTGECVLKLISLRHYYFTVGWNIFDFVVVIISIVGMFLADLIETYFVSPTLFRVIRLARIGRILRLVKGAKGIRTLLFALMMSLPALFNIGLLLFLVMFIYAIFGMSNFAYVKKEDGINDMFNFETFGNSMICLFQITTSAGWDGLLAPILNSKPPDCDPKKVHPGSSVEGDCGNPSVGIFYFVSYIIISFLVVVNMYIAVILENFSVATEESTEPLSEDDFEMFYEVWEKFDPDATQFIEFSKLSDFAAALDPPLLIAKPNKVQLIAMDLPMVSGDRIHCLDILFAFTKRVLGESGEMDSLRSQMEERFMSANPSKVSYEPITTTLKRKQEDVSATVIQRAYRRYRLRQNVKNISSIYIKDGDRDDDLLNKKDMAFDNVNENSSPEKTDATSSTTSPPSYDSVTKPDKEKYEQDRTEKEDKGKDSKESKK

[1] = clamped to −110 mV, depolarized to −10 mV, 5 min after compound, n=2

## CC[C@H](C)[C@@H]1NC(=O)[C@@H]2CSSC[C@@H]3NC(=O)[C@H](C(C)C)NC(=O)[C@H](CC(C)C)NC(=O)[C@H](CC(N)=O)NC(=O)[C@@H]4CCCN4C(=O)[C@H](CCCNC(=N)N)NC(=O)[C@H](CSSC[C@H](NC(=O)[C@@H](N)CC(=O)O)C(=O)N[C@@H](CC(C)C)C(=O)NCC(=O)N[C@@H](C)C(=O)N[C@@H](CCSC)C(=O)N[C@@H](CCCNC(=N)N)C(=O)N[C@@H](CCCCN)C(=O)N2)NC(=O)[C@H](CSSC[C@@H](C(=O)N[C@@H](CCCCN)C(=O)N[C@@H](Cc2ccc(O)cc2)C(=O)N[C@H](C(=O)N[C@@H](Cc2ccccc2)C(N)=O)C(C)C)NC(=O)[C@H](Cc2c[nH]c4ccccc24)NC(=O)[C@H](CCCNC(=NC)NC)NC(=O)[C@H](Cc2c[nH]cn2)NC(=O)[C@H]([C@@H](C)O)NC(=O)[C@H](CCCNC(=N)N)NC(=O)[C@H](CO)NC3=O)NC(=O)[C@H](CCCCN)NC(=O)[C@H](CC(=O)O)NC(=O)[C@H](CC(N)=O)NC(=O)[C@H](CC(=O)O)NC(=O)[C@@H]2CCCN2C1=O [compound 743] (H-DCLGAMRKCIPDNDKCCRPNLVCSRTH[Arg(Me2s)]WCKYVF-NH2; disulfide 2-17, 9-23, 16-30)
hNav1.5; use-dependent block, hNav1.5
  IC50: 26500 nM
hNav1.3; use-dependent block, hNav1.3
  IC50: 1100 nM
hNav1.7; use-dependent block, hNav1.7
  IC50: 220 nM

## CC[C@H](C)[C@H](NC(=O)[C@H](CCCCN)NC(=O)[C@@H]1CSSC[C@@H]2NC(=O)[C@H](CCCCN)NC(=O)[C@H](CC(=O)O)NC(=O)[C@H](CC(N)=O)NC(=O)[C@H](CC(=O)O)NC(=O)[C@@H]3CCCN3C(=O)[C@H]([C@@H](C)CC)NC(=O)[C@@H]3CSSC[C@H](NC(=O)[C@H](C(C)C)NC(=O)[C@H](CC(C)C)NC(=O)[C@H](CC(N)=O)NC(=O)[C@@H]4CCCN4C(=O)[C@H](CCCNC(=N)N)NC(=O)[C@H](CSSC[C@H](NC(=O)[C@@H](N)CC(=O)O)C(=O)N[C@@H](CC(C)C)C(=O)NCC(=O)N[C@@H](Cc4ccccc4)C(=O)N[C@@H](CCSC)C(=O)N[C@@H](CCCNC(=N)N)C(=O)N[C@@H](CCCCN)C(=O)N3)NC2=O)C(=O)N[C@@H](CO)C(=O)N[C@@H](CCCNC(=N)N)C(=O)N[C@@H]([C@@H](C)O)C(=O)N[C@@H](Cc2c[nH]cn2)C(=O)N[C@@H](CCCCN)C(=O)N[C@@H](Cc2c[nH]c3ccccc23)C(=O)N1)C(=O)N[C@H](C(=O)N[C@@H](Cc1ccccc1)C(N)=O)C(C)C [compound 367] (H-DCLGFMRKCIPDNDKCCRPNLVCSRTHKWCKIVF-NH2; disulfide 2-17, 9-23, 16-30)
hNav1.5; Table 25, use, […]
  IC50: 8710 nM
hNav1.3; Table 25, use, […]
  IC50: 60 nM
hNav1.7; Table 25, use, […]
  IC50: 70 nM

## CC[C@H](C)[C@@H]1NC(=O)[C@@H]2CSSC[C@@H]3NC(=O)[C@H](C(C)C)NC(=O)[C@H](CC(C)C)NC(=O)[C@H](CC(N)=O)NC(=O)[C@@H]4CCCN4C(=O)[C@H](CCCNC(=N)N)NC(=O)[C@H](CSSC[C@H](NC(=O)[C@@H](N)CC(=O)O)C(=O)N[C@@H](CC(C)C)C(=O)NCC(=O)N[C@@H](Cc4ccccc4)C(=O)NCC(=O)N[C@@H](CCCNC(=N)N)C(=O)N[C@@H](CCCCN)C(=O)N2)NC(=O)[C@H](CSSC[C@@H](C(=O)N[C@@H](CCCCN)C(=O)N[C@@H](Cc2ccc(O)cc2)C(=O)N[C@H](C(=O)N[C@@H](Cc2ccccc2)C(N)=O)C(C)C)NC(=O)[C@H](Cc2c[nH]c4ccccc24)NC(=O)[C@H](CCCCN)NC(=O)[C@H](Cc2c[nH]cn2)NC(=O)[C@H]([C@@H](C)O)NC(=O)[C@H](CCCNC(=N)N)NC(=O)[C@H](CO)NC3=O)NC(=O)[C@H](CCCCN)NC(=O)[C@H](CC(=O)O)NC(=O)[C@H](CC(N)=O)NC(=O)[C@H](CC(=O)O)NC(=O)[C@@H]2CCCN2C1=O [SEQ ID NO: 280] (H-DCLGFGRKCIPDNDKCCRPNLVCSRTHKWCKYVF-NH2; disulfide 2-17, 9-23, 16-30)
hNav1.5; [1]
  IC50: 8200 nM
hNav1.3; [1]
  IC50: 140 nM
hNav1.7; [1]
  IC50: 180 nM

## CC[C@H](C)[C@@H]1NC(=O)[C@@H]2CSSC[C@@H]3NC(=O)[C@H](C(C)C)NC(=O)[C@H](CC(C)C)NC(=O)[C@H](CC(N)=O)NC(=O)[C@@H]4CCCN4C(=O)[C@H](CCCNC(=N)N)NC(=O)[C@H](CSSC[C@H](NC(=O)[C@@H](N)CC(=O)O)C(=O)N[C@@H](CC(C)C)C(=O)NCC(=O)N[C@@H](Cc4ccccc4)C(=O)N[C@@H](CCSC)C(=O)N[C@@H](CCCNC(=N)N)C(=O)N[C@@H](CCCCN)C(=O)N2)NC(=O)[C@H](CSSC[C@@H](C(=O)N[C@@H](CCCCN)C(=O)N[C@@H](Cc2ccc(O)cc2)C(=O)N[C@H](C(=O)N[C@@H](Cc2ccccc2)C(N)=O)C(C)C)NC(=O)[C@H](Cc2c[nH]c4ccccc24)NC(=O)[C@H](CCCNC(=N)N)NC(=O)[C@H](Cc2c[nH]cn2)NC(=O)[C@H](CC(C)C)NC(=O)[C@H](CCCNC(=N)N)NC(=O)[C@H](CO)NC3=O)NC(=O)[C@H](CCCCN)NC(=O)[C@H](CC(=O)O)NC(=O)[C@H](CC(N)=O)NC(=O)[C@H](CC(=O)O)NC(=O)[C@@H]2CCCN2C1=O [compound 445] (H-DCLGFMRKCIPDNDKCCRPNLVCSRLHRWCKYVF-NH2; disulfide 2-17, 9-23, 16-30)
hNav1.5; use-dependent block, hNav1.5
  IC50: > 5000 nM
hNav1.3; use-dependent block, hNav1.3
  IC50: 60 nM
hNav1.7; use-dependent block, hNav1.7
  IC50: 30 nM

## CC[C@H](C)[C@@H]1NC(=O)[C@@H]2CSSC[C@@H]3NC(=O)[C@H](C(C)C)NC(=O)[C@H](CC(C)C)NC(=O)[C@H](CC(N)=O)NC(=O)[C@@H]4CCCN4C(=O)[C@H](CCCNC(=N)N)NC(=O)[C@H](CSSC[C@H](NC(=O)[C@@H](N)CC(=O)O)C(=O)N[C@@H](CC(C)C)C(=O)NCC(=O)N[C@@H](Cc4ccccc4)C(=O)N[C@@H](CCSC)C(=O)N[C@@H](CCCCN)C(=O)N[C@@H](CCCCN)C(=O)N2)NC(=O)[C@H](CSSC[C@@H](C(=O)N[C@@H](CCCCN)C(=O)N[C@@H](Cc2ccc(O)cc2)C(=O)N[C@H](C(=O)N[C@@H](Cc2ccccc2)C(N)=O)C(C)C)NC(=O)[C@H](Cc2c[nH]c4ccccc24)NC(=O)[C@H](CCCCN)NC(=O)[C@H](Cc2c[nH]cn2)NC(=O)[C@H]([C@@H](C)O)NC(=O)[C@H](CCCNC(=N)N)NC(=O)[C@H](CO)NC3=O)NC(=O)[C@H](CCCCN)NC(=O)[C@H](CC(=O)O)NC(=O)[C@H](CC(N)=O)NC(=O)[C@H](CC(=O)O)NC(=O)[C@@H]2CCCN2C1=O [[Lys7]GpTx-1(1-34)] (H-DCLGFMKKCIPDNDKCCRPNLVCSRTHKWCKYVF-NH2; disulfide 2-17, 9-23, 16-30)
hNav1.5; use-dependent block, hNav1.5
  IC50: 23300 nM
hNav1.3; use-dependent block, hNav1.3
  IC50: 470 nM
hNav1.7; use-dependent block, hNav1.7
  IC50: 530 nM

## CC[C@H](C)[C@@H]1NC(=O)[C@@H]2CSSC[C@@H]3NC(=O)[C@H](C(C)C)NC(=O)[C@H](CC(C)C)NC(=O)[C@H](CC(N)=O)NC(=O)[C@@H]4CCCN4C(=O)[C@H](CCCNC(=N)N)NC(=O)[C@H](CSSC[C@H](NC(=O)[C@H](CC(=O)O)NC(=O)[C@@H](N)CCCNC(=N)N)C(=O)N[C@@H](CC(C)C)C(=O)NCC(=O)N[C@@H](Cc4ccccc4)C(=O)N[C@@H](CCSC)C(=O)N[C@@H](CCCNC(=N)N)C(=O)N[C@@H](CCCCN)C(=O)N2)NC(=O)[C@H](CSSC[C@@H](C(=O)N[C@@H](CCCCN)C(=O)N[C@@H](Cc2ccc(O)cc2)C(=O)N[C@H](C(=O)N[C@@H](Cc2ccccc2)C(N)=O)C(C)C)NC(=O)[C@H](Cc2c[nH]c4ccccc24)NC(=O)[C@H](CCCCN)NC(=O)[C@H](Cc2c[nH]cn2)NC(=O)[C@H]([C@@H](C)O)NC(=O)[C@H](CCCNC(=N)N)NC(=O)[C@H](CO)NC3=O)NC(=O)[C@H](CCCCN)NC(=O)[C@H](CC(=O)O)NC(=O)[C@H](CC(N)=O)NC(=O)[C@H](CC(=O)O)NC(=O)[C@@H]2CCCN2C1=O [SEQ ID NO: 61]
hNav1.5; [1]
  IC50: 15100 nM
hNav1.3; [1]
  IC50: 80 nM
hNav1.7; [1]
  IC50: 170 nM

## CC[C@H](C)[C@@H]1NC(=O)[C@@H]2CSSC[C@@H]3NC(=O)[C@H](C(C)C)NC(=O)[C@H](CC(C)C)NC(=O)[C@H](Cc4ccc(O)cc4)NC(=O)[C@@H]4CCCN4C(=O)[C@H](CCCNC(=N)N)NC(=O)[C@H](CSSC[C@H](NC(=O)[C@@H](N)CC(=O)O)C(=O)N[C@@H](CC(C)C)C(=O)NCC(=O)N[C@@H](Cc4ccccc4)C(=O)N[C@@H](CCSC)C(=O)N[C@@H](CCCNC(=N)N)C(=O)N[C@@H](CCCCN)C(=O)N2)NC(=O)[C@H](CSSC[C@@H](C(=O)N[C@@H](CCCCN)C(=O)N[C@@H](Cc2ccc(O)cc2)C(=O)N[C@H](C(=O)N[C@@H](Cc2ccccc2)C(N)=O)C(C)C)NC(=O)[C@H](Cc2c[nH]c4ccccc24)NC(=O)[C@H](CCCCN)NC(=O)[C@H](Cc2c[nH]cn2)NC(=O)[C@H]([C@@H](C)O)NC(=O)[C@H](CCCNC(=N)N)NC(=O)[C@H](CO)NC3=O)NC(=O)[C@H](CCCCN)NC(=O)[C@H](CC(=O)O)NC(=O)[C@H](CC(N)=O)NC(=O)[C@H](CC(=O)O)NC(=O)[C@@H]2CCCN2C1=O [compound 200] (H-DCLGFMRKCIPDNDKCCRPYLVCSRTHKWCKYVF-NH2; disulfide 2-17, 9-23, 16-30)
hNav1.5; Use
  IC50: 9050 nM
hNav1.3; Use
  IC50: 55 nM
hNav1.7; Use
  IC50: 116 nM
